The text below walks through data of patent US10471032B1, “Substituted glutaurine compounds and substituted glutaurine derivatives” (ThermoLife International, LLC, priority 2013, dated 2019).

One assay relates to triiodothyronine (T3). The assay is described as follows: Total T3 level in blood samples during oral administration to a human subject. Format: in vivo. The settings on record: for T3: total T3, blood, one human subject, Day 0 before dosing 91. The protocol:
(§1) To evaluate the effect of administration of glutaurine on estradiol and thyroid hormone levels in a human subject, approximately 800 micrograms (mcg) per day of glutaurine were administered orally to the subject over a period of about one month. At Day 0 prior to administration of the glutaurine and at Day 4 and Day 28 during administration of the glutaurine blood samples were collected and analyzed for the levels of estradiol, thyroid stimulating hormone (TSH), and the thyroid hormones triiodothyronine (T3) and thyroxine (T4). Total amounts of T3 and T4 were measured in the blood samples.

The test system of assay [1] is thyroid stimulating hormone (TSH). In words: TSH level in blood samples during oral administration to a human subject. Format: in vivo. The settings on record: for TSH: blood, one human subject, Day 0 before dosing 3.01. As to the method: as §1
In the next assay the test system is estradiol. The assay is described as follows: Estradiol level in blood samples during oral administration to a human subject. Format: in vivo. The settings on record: for Estradiol: blood, one human subject, Day 0 before dosing 36. The protocol: as §1
The test system of another assay is human subject. The assay is described as follows: Subject-reported effects during administration. Format: in vivo. The settings on record: oral approx. 800 mcg/day. The protocol:
as §1
The subject also reported fat loss as a result of the glutaurine administration.

The subject of a further assay is thyroxine (T4). In words: Total T4 level in blood samples during oral administration to a human subject. The settings on record: for T4: total T4, blood, one human subject, Day 0 before dosing 8.3. Format: in vivo. The protocol: as §1
The test system of assay [2] is estradiol and total testosterone. The settings on record: men treated, Taxel et al. (2001); cited from earlier work.
Where [3] appears, read: oral approx. 800 mcg/day for about one month, human subject.
[4] abbreviates: Day 4 of oral approx. 800 mcg/day.
The mark [5] stands for this setting: Day 28 of oral approx. 800 mcg/day.
[6] abbreviates: indicative of rising energy expenditure and metabolism.

SMILES strings stand for the structures.

On to `NC(CCC(=O)NCCS(=O)(=O)O)C(=O)O` (centres unmarked) [glutaurine], for which the “change in T3 levels” value in the assay on triiodothyronine (T3) (setting [3]) is “consistent increase”. The T3 in the assay with triiodothyronine (T3) (setting [4]) was found to be 96 ng/dL; in the assay with triiodothyronine (T3) (setting [5]), 109 ng/dL. Further, the TSH in assay [1] (setting [4]) is recorded as 3.28 mIU/L; in assay [1] (setting [5]), 2.74 mIU/L. Besides, the “change in TSH levels” value in assay [1] (setting [3]) is recorded as “no significant change”. The Estradiol came out at 32 pg/mL in the assay on estradiol (setting [4]) and 30 pg/mL in the assay with estradiol (setting [5]). The “change in estradiol levels” value with estradiol (setting [3]) is “marked decrease”. In addition, the “body fat (subject-reported)” value in the assay on human subject is reported as “fat loss”. In addition, in the assay on human subject (setting [6]), the “body temperature (subject-reported)” value is “increased body temperature”. The “sweating (subject-reported)” value with human subject (setting [6]) is reported as “increased sweating”. In the assay with thyroxine (T4) (setting [3]), the “change in T4 levels” value is on record as “slightly reduced”. Moreover, the T4 in the assay with thyroxine (T4) (setting [4]) was found to be 7.9 µg/dL; in the assay with thyroxine (T4) (setting [5]) it was 7.3 µg/dL.
As for `CC(C)(C#N)c1cc(Cn2cncn2)cc(C(C)(C)C#N)c1` [anastrozole], in assay [2], the change in estradiol entry is on record as “significant decrease” and the “change in total testosterone” value is reported as “increase”.
